# Target: T1, His-EBNA1 (DNA binding domain of EBNA1, amino acids 459-607) (Epstein-Barr virus, UniProt P03211)
# T1 construct: made in house; host or cells: E. coli
# Test: Inhibition of 5'-biotin-oPL4624 binding to His-EBNA1 using Alpha Screen technology
# Procedure: Inhibition of 5′-Biotin-oPL4624 Binding to his-EBNA1 Using Alpha Screen Technology
# Assays were performed using the DNA binding domain of EBNA1 (amino acids 459-607), which was His-tagged (His-EBNA1) and the self-complementary biotinylated (bt) oligonucleotide with the sequence 5′-bt-[…]-ATGCTACCC-3′ (bt-oPL4624; or 5′-bt-SEQ ID NO: 1). The protein was expressed in E. coli and purified according to Barwell, et al., 1995, J Biol Chem. 270:20556-9.). The bt-oPL4624 oligonucleotide was purchased from Integrated DNA Technologies, Inc (IDT). AlphaScreen donor, acceptor beads and white, opaque 384-well assay plates were purchased from PerkinElmer, Inc.
# Assays contained 15 nM His-EBNA1, 0.2 nM bt-oPL4624, 5 μg/mL AlphaScreen streptavidin donor beads and nickel chelate acceptor beads, and a series of concentrations of test compound ranging from 3.2 nM to 100 μM in a total volume of 40 μL assay buffer (25 mM Tris, pH 7.2, 160 mM NaCl, 1 mM MgCl2). His-EBNA1 (30 nM) and bt-oPL4624 (0.4 nM) were preincubated with 10 μg/mL nickel chelate AlphaScreen acceptor bead, or 10 μg/mL streptavidin AlphaScreen donor bead, respectively, for 30 minutes at room temperature in assay buffer. Twenty microliters of His-EBNA1/acceptor bead mix and bt-oPL4624/donor bead mix were transferred to assay plates containing 0.4 μL of 1:3 serial dilutions of test compounds previously prepared in DMSO at concentrations ranging from 0.32 μM to 10 mM. Non-specific binding was determined with 5 μg/mL AlphaScreen acceptor bead in the absence of His-EBNA1. After 2 hr incubation at room temperature, the AlphaScreen signal was measured on the Envision plate reader (PerkinElmer, Inc.) at 680 nm excitation and 570 nm emission. Inhibition values at each concentration of test compound were determined by setting 100% equal to raw data values in the absence of EBNA1 and 0% equal to the raw data values in the presence of EBNA1. Nonlinear regression fits of the inhibition values to a one-site dose-response equation were performed using GraphPad Prism.
# T1 sequence (P03211 459-607): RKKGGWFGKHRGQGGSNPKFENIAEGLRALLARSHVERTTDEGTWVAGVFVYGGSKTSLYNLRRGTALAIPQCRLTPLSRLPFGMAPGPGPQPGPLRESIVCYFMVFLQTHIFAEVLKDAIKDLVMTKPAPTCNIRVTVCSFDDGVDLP
row,Structure (SMILES),IC50
1,CS(=O)(=O)c1ccc(OCc2ccc(C#Cc3cccc(C(=O)O)c3-c3ccc4cc[nH]c4c3)cc2)cc1 [Entry 95],1 to 10 µM
2,COC1CCN(C(=O)c2ccc(C#Cc3cccc(C(=O)O)c3-c3ccc4cc[nH]c4c3)cc2)CC1 [Entry 203],1 to 10 µM
3,O=C(O)c1cccc(C#Cc2ccccc2)c1-c1cc2[nH]ccc2cc1F [Entry 113],1 to 10 µM
4,CS(=O)(=O)N1CC(CN2CCc3ccc(C#Cc4cccc(C(=O)O)c4-c4ccc5cc[nH]c5c4)cc3C2)C1 [Entry 65],10 to 100 µM
5,O=C(O)c1cccc(C#Cc2cn(CCN3CCOCC3)c3ncccc23)c1-c1ccc2cc[nH]c2c1 [Entry 10],10 to 100 µM
6,CC(=O)N1C2CCC1CC(c1ccc(C#Cc3cccc(C(=O)O)c3-c3ccc4cc[nH]c4c3)cc1)C2 (stereo not shown) [Entry 3],10 to 100 µM
7,O=C(O)c1cccc(C#Cc2ccc3ccn(CCN4CCS(=O)(=O)CC4)c3c2)c1-c1ccc2cc[nH]c2c1 [Entry 23],10 to 100 µM
8,O=C(O)c1cccc(C#Cc2ccc3ccn(CCCN4CCOCC4)c3c2)c1-c1ccc2cc[nH]c2c1 [Entry 15],10 to 100 µM
9,CS(=O)(=O)N1CCC(N2Cc3ccc(C#Cc4cccc(C(=O)O)c4-c4ccc5cc[nH]c5c4)cc3C2)C1 (stereo not shown) [Entry 68],1 to 10 µM
10,O=C(O)c1cccc(C#Cc2cnc3c(ccn3CCN3CCS(=O)(=O)CC3)c2)c1-c1ccc2cc[nH]c2c1 [Entry 12],10 to 100 µM
11,Cc1nc2cc(-c3c(C#Cc4ccccc4)cccc3C(=O)O)ccc2s1 [Entry 112],10 to 100 µM
12,CCS(=O)(=O)N1CCN(Cc2ccc(C#Cc3cccc(C(=O)O)c3-c3ccc4cc[nH]c4c3)cc2)CC1 [Entry 183],10 to 100 µM
13,COc1cc(C#Cc2cccc(C(=O)O)c2-c2ccc3cc[nH]c3c2)ccc1CN1CCOCC1 [Entry 45],10 to 100 µM
14,CS(=O)(=O)c1ccccc1OCc1ccc(C#Cc2cccc(C(=O)O)c2-c2ccc3cc[nH]c3c2)cc1 [Entry 97],1 to 10 µM
15,O=C(O)c1cccc(C#Cc2cccc(CN3CCc4ccccc4C3)c2)c1-c1ccc2cc[nH]c2c1 [Entry 102],1 to 10 µM
16,CC(C)S(=O)(=O)N1CCN(Cc2ccc(C#Cc3cccc(C(=O)O)c3-c3ccc4cc[nH]c4c3)cc2)CC1 [Entry 191],1 to 10 µM
17,CS(=O)(=O)N1CCC(N2CCc3ccc(C#Cc4cccc(C(=O)O)c4-c4ccc5cc[nH]c5c4)cc3C2)C1 (stereo not shown) [Entry 58],10 to 100 µM
18,CN1CCN(Cc2ccc(C#Cc3cccc(C(=O)O)c3-c3ccc4cc[nH]c4c3)cc2)CC1 [Entry 147],10 to 100 µM
19,CS(=O)(=O)N1CC2(CCN(Cc3ccc(C#Cc4cccc(C(=O)O)c4-c4ccc5cc[nH]c5c4)cc3)CC2)C1 [Entry 188],10 to 100 µM
20,O=C(O)c1cccc(C#Cc2ccc3c(ccn3CCN3CCOCC3)c2)c1-c1ccc2cc[nH]c2c1 [Entry 13],10 to 100 µM
21,Nc1nc2c(s1)C[C@H](NC(=O)c1ccc(C#Cc3cccc(C(=O)O)c3-c3ccc4cc[nH]c4c3)cc1)CC2 [Entry 201],1 to 10 µM
22,CC(C)OCc1ccc(C#Cc2cccc(C(=O)O)c2-c2ccc3cc[nH]c3c2)cc1 [Entry 28],1 to 10 µM

row,Structure (SMILES),IC50
1,O=C(O)c1cccc(C#Cc2ccc(COc3cncnc3)cc2)c1-c1ccc2cc[nH]c2c1 [Entry 96],1 to 10 µM
2,O=C1CCC(NC(=O)c2ccc(C#Cc3cccc(C(=O)O)c3-c3ccc4cc[nH]c4c3)cc2)CC1 [Entry 199],< 1 µM
3,O=C(O)c1cccc(C#Cc2ccc3nc(C(F)(F)F)[nH]c(=O)c3c2)c1-c1ccc2cc[nH]c2c1 [Entry 135],1 to 10 µM
4,O=C(O)c1cccc(C#Cc2ccc(CC3CCN(S(=O)(=O)C(F)(F)F)CC3)cc2)c1-c1ccc2cc[nH]c2c1 [Entry 53],1 to 10 µM
5,O=C(O)c1cccc(C#Cc2ccc(COc3ccccc3)cc2)c1-c1ccc2cc[nH]c2c1 [Entry 88],1 to 10 µM
6,O=C(O)c1cccc(C#Cc2ccc(C(=O)N3CCC(N4CCOCC4)CC3)c(O)c2)c1-c1ccc2cc[nH]c2c1 [Entry 50],1 to 10 µM
7,CC(C)S(=O)(=O)N1Cc2ccc(C#Cc3cccc(C(=O)O)c3-c3ccc4cc[nH]c4c3)cc2C1 [Entry 57],1 to 10 µM
8,CC(C)S(=O)(=O)N1CCc2ccc(C#Cc3cccc(C(=O)O)c3-c3ccc4cc[nH]c4c3)cc2C1 [Entry 74],1 to 10 µM
9,O=C(O)c1cccc(C#Cc2ccc(CN3CCN(C4CCCC4)CC3)cc2)c1-c1ccc2cc[nH]c2c1 [Entry 170],10 to 100 µM
10,CS(=O)(=O)Nc1cccc(CN2CCc3ccc(C#Cc4cccc(C(=O)O)c4-c4ccc5cc[nH]c5c4)cc3C2)c1 [Entry 67],1 to 10 µM
11,CN(C)CCCn1cc(C#Cc2cccc(C(=O)O)c2-c2ccc3cc[nH]c3c2)c2cccnc21 [Entry 11],100 to 1000 µM
12,NS(=O)(=O)c1cccc(C#Cc2cccc(C(=O)O)c2-c2ccc3cc[nH]c3c2)c1 [Entry 122],10 to 100 µM
13,CS(=O)(=O)N1CC(CN2CCc3cc(C#Cc4cccc(C(=O)O)c4-c4ccc5cc[nH]c5c4)ccc3C2)C1 [Entry 64],10 to 100 µM
14,O=C(O)c1cccc(C#Cc2cc3ccn(CC4CCOCC4)c3cc2F)c1-c1ccc2cc[nH]c2c1 [Entry 35],1 to 10 µM
15,Nc1nc2c(s1)C[C@H](NCc1ccc(C#Cc3cccc(C(=O)O)c3-c3ccc4cc[nH]c4c3)cc1)CC2 [Entry 175],1 to 10 µM
16,O=C(O)c1cccc(C#Cc2ccc(OC3CCS(=O)(=O)CC3)cc2)c1-c1ccc2cn[nH]c2c1 [Entry 185],10 to 100 µM
17,Nc1nnc(-c2ccc(C#Cc3cccc(C(=O)O)c3-c3ccc4cc[nH]c4c3)cc2)s1 [Entry 127],1 to 10 µM
18,O=C(O)c1cccc(C#Cc2ccc(OC3CCOCC3)cc2)c1-c1cnc2[nH]ccc2c1 [Entry 142],10 to 100 µM
19,CS(=O)(=O)N1CCN(Cc2ccc(C#Cc3cccc(C(=O)O)c3-c3ccc4cc[nH]c4c3)cc2)CC1 [Entry 161],10 to 100 µM
20,O=C(O)c1cccc(C#Cc2ccc(OC3CCS(=O)(=O)CC3)cc2)c1-c1ccc2cc[nH]c2c1 [Entry 144],10 to 100 µM
21,CN(C)CCN(C)Cc1ccc(C#Cc2cccc(C(=O)O)c2-c2ccc3cc[nH]c3c2)cc1 [Entry 149],10 to 100 µM
22,CC(=O)N1CCC(Cc2ccc(C#Cc3cccc(C(=O)O)c3-c3ccc4cc[nH]c4c3)cc2)CC1 [Entry 55],1 to 10 µM

row,Structure (SMILES),IC50
1,O=C(O)c1cccc(C#Cc2cn(CCCN3CCOCC3)c3ncccc23)c1-c1ccc2cc[nH]c2c1 [Entry 7],10 to 100 µM
2,O=C(O)c1cccc(C#Cc2ccc(COC3CCOCC3)cc2F)c1-c1ccc2cc[nH]c2c1 [Entry 186],1 to 10 µM
3,O=C(O)c1cccc(C#Cc2ccc(CN3CCOCC3)cc2)c1-c1ccc2cc[nH]c2c1 [Entry 145],1 to 10 µM
4,CN1CCN(Cc2ccc(C#Cc3cccc(C(=O)O)c3-c3cnc4[nH]ccc4c3)cc2)CC1 [Entry 176],10 to 100 µM
5,CC(=O)N1Cc2ccc(C#Cc3cccc(C(=O)O)c3-c3ccc4cc[nH]c4c3)cc2C1 [Entry 56],1 to 10 µM
6,COC1CCN(Cc2ccc(C#Cc3cccc(C(=O)O)c3-c3ccc4cc[nH]c4c3)cc2)C1 (stereo not shown) [Entry 163],10 to 100 µM
7,COc1cccc(OCc2ccc(C#Cc3cccc(C(=O)O)c3-c3ccc4cc[nH]c4c3)cc2)c1 [Entry 87],1 to 10 µM
8,COc1cc(-c2c(C#Cc3ccccc3)cccc2C(=O)O)cc2[nH]ccc12 [Entry 119],1 to 10 µM
9,O=C(O)c1cccc(C#Cc2ccc3c(ccn3CCCN3CCOCC3)c2)c1-c1ccc2cc[nH]c2c1 [Entry 14],10 to 100 µM
10,O=C(O)c1cccc(C#Cc2ccc(COc3ccccc3C(F)(F)F)cc2)c1-c1ccc2cc[nH]c2c1 [Entry 93],1 to 10 µM
11,CS(=O)(=O)Nc1cccc(-c2cccc(C#Cc3cccc(C(=O)O)c3-c3ccc4cc[nH]c4c3)c2)c1 [Entry 99],1 to 10 µM
12,Nc1ncc(-c2ccc(C#Cc3cccc(C(=O)O)c3-c3ccc4cc[nH]c4c3)cc2)o1 [Entry 130],1 to 10 µM
13,O=C(O)c1cccc(C#Cc2ccc(COc3ccc(Cl)c(Cl)c3)cc2)c1-c1ccc2cc[nH]c2c1 [Entry 92],1 to 10 µM
14,CS(=O)(=O)N1CCN(Cc2c[nH]c3cc(C#Cc4cccc(C(=O)O)c4-c4ccc5cc[nH]c5c4)ccc23)CC1 [Entry 31],1 to 10 µM
15,O=C(O)c1cccc(C#Cc2cnc3c(ccn3CCN3CCOCC3)c2)c1-c1ccc2cc[nH]c2c1 [Entry 8],1 to 10 µM
16,CS(=O)(=O)N1CCC(Cn2ccc3cc(C#Cc4cccc(C(=O)O)c4-c4ccc5cc[nH]c5c4)ccc32)CC1 [Entry 19],1 to 10 µM
17,O=C(O)c1cccc(C#Cc2ccc(COC3CCOCC3)cc2)c1-c1ccc2cc[nH]c2c1 [Entry 27],10 to 100 µM
18,CS(=O)(=O)N1CCN(Cc2ccc(C#Cc3cccc(C(=O)O)c3-c3ccc4cn[nH]c4c3)cc2)CC1 [Entry 204],10 to 100 µM
19,O=C(O)c1cccc(C#Cc2ccc3ccn(CCCN4CCS(=O)(=O)CC4)c3c2)c1-c1ccc2cc[nH]c2c1 [Entry 25],1 to 10 µM
20,O=C(O)c1cccc(C#Cc2ccc(CN3CCC(F)(F)CC3)cc2)c1-c1ccc2[nH]ccc2c1 [Entry 181],1 to 10 µM

# Source: patent US10442763B2, “EBNA1 inhibitors and methods using same” (priority 2015, dated 2019)
